Reference: US8071589B2, “Dihydrobenzoindazoles” (N. V. Organon, priority 2009, dated 2011)

target: T1, human FSH receptor (Homo sapiens, UniProt P23945); assay: Agonistic activity at the human FSH receptor expressed in CHO cells (CRE-luciferase reporter)
T1 sequence (P23945 18-695): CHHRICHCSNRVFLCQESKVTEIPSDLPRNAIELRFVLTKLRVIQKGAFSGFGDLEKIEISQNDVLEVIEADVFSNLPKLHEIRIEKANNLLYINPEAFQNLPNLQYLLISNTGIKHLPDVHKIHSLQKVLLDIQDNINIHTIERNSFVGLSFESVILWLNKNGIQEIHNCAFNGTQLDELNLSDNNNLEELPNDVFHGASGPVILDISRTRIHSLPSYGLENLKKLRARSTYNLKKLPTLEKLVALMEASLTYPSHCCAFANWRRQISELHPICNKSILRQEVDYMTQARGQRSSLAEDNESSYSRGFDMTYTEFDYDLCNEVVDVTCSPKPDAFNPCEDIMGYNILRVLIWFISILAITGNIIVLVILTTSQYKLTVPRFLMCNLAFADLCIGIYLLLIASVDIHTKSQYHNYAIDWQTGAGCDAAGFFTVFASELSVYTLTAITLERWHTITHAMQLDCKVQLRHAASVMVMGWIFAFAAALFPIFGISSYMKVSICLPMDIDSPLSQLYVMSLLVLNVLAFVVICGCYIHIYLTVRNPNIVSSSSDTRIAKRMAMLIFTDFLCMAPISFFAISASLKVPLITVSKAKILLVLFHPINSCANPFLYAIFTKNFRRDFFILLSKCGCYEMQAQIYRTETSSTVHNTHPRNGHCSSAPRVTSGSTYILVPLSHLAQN
Source text: The term EC50 means the concentration of the test compound that elicits half-maximal (50%) stimulation compared to the compound's maximally attainable effect. pEC50 is the negative log of EC50. The values can be determined e.g. in a cell line transfected with a FSH receptor gene and cotransfected with a cAMP responsive element/promoter directing the expression of a reporter gene. For the determination a software program such as MathIQ (version 2.0, ID Business Solutions Limited) can be used.
Agonistic activity of the compounds at the human FSH receptor was determined in Chinese Hamster Ovary (CHO) cells stably transfected with the human FSH receptor and cotransfected with a cAMP responsive element (CRE)/promotor directing the expression of a firefly luciferase reporter gene. […] Cells (7,500 cells/well of a 384 well plate) were incubated in Dulbecco' minimal essential F12 modified medium (Invitrogen), supplemented with 1 μg/ml bovine insulin, 5 μg/ml human apo-transferrin, 80 U/ml penicillin G and 80 μg/ml streptomycin with the test compounds (concentration between 0.0316 nM and 10.0 μM) in duplicate in a humidified atmosphere (95%) at 5-7% CO2 and 37° C. The final concentration of DMSO was 1%. After 4 hours of incubation, plates were allowed to adjust to room temperature for 1 hour. Then, Luclite (PerkinElmer) solution was added to the wells and cells were allowed to lyse for at least 1 hour at room temperature. Subsequently, luciferase activity was measured in a luminescence counter. The signal is expressed as counts per second (cps). The EC50 (concentration of the test compound that elicits half-maximal (50%) luciferase stimulation compared to the compound's maximally attainable effect) and efficacy values (maximal effect of the test compound as percentage of the maximal effect of recombinant human FSH) of the compounds were determined using the software program MathIQ (version 2.0, ID Business Solutions Limited).

EC50 [nM] | Compound
< 100 | COc1cc2c(cc1OC(C)C)-c1c(c(C(=O)N3CCCN(C(=O)C4CCC4)CC3)nn1-c1ccc(F)cc1)CC2 [Example 3d, (4-(cyclobutanecarbonyl)-1,4-diazepan-1-yl)(1-(4-fluorophenyl)-8-isopropoxy-7-methoxy-4,5-dihydro-1H-benzo[g]indazol-3-yl)methanone]
< 100 | COc1cc2c(cc1OC(C)C)-c1c(c(C(=O)N(C)C(C)(C)C)nn1-c1cccs1)CC2 [Example 5b, N-tert-butyl-8-isopropoxy-7-methoxy-N-methyl-1-(thiophen-2-yl)-4,5-dihydro-1H-benzo[g]indazole-3-carboxamide]
< 100 | COc1cc2c(cc1OC(C)C)-c1c(c(C(=O)N3CCCN(C(C)=O)CC3)nn1-c1ccc(F)cc1)CC2 [Example 3c, 1-(4-(1-(4-fluorophenyl)-8-isopropoxy-7-methoxy-4,5-dihydro-1H-benzo[g]indazole-3-carbonyl)-1,4-diazepan-1-yl)ethanone]
< 100 | COc1cc2c(cc1OC(C)C)-c1c(c(C(=O)N(C)C(C)(C)C)nn1-c1ccsc1)CC2 [Example 2h, N-tert-butyl-8-isopropoxy-7-methoxy-N-methyl-1-(thiophen-3-yl)-4,5-dihydro-1H-benzo[g]indazole-3-carboxamide]
< 100 | COc1cc2c(cc1OC(C)C)-c1c(c(C(=O)N3CCCN(C(=O)C4CCC4)CC3)nn1-c1ccsc1)CC2 [Example 2g, (4-(cyclobutanecarbonyl)-1,4-diazepan-1-yl)(8-isopropoxy-7-methoxy-1-(thiophen-3-yl)-4,5-dihydro-1H-benzo[g]indazol-3-yl)methanone]
< 100 | COc1cc2c(cc1-c1cccnc1)-c1c(c(C(=O)N(C)C(C)(C)C)nn1-c1ccccc1Cl)CC2 [Example 11gb, N-tert-butyl-1-(2-chlorophenyl)-7-methoxy-N-methyl-8-(pyridin-3-yl)-4,5-dihydro-1H-benzo[g]indazole-3-carboxamide]
